Reference: article PMC3433414, “Oral Administration of the Pimelic Diphenylamide HDAC Inhibitor HDACi 4b Is Unsuitable for Chronic Inhibition of HDAC Activity in the CNS In Vivo” (PLoS ONE, 2012)
Where two headings read alike, the source gives them in different places.

Assay: Pharmacokinetics after a single SC or PO dose
Type: in vivo, mouse
Settings: for Tmax: read-out: Observed Tmax
Description: The pharmacokinetic parameters of 4b following dosing with either 5 mg/kg subcutaneous (sc) injection using the soluble formulation, or 4b per oral (po) by gavage (50 mg/kg in suspension) in mice plasma and whole brain homogenate are shown in Fig. 4 and Table 1. Triplicate dose formulation samples were retained and analyzed to ensure an accurate concentration of 4b was injected. The sc dose was calculated to be on average 84.3% of the 5 mg/kg target dose. Therefore, for PK analysis purposes, the dose level for this group was adjusted to 4.22 mg eq./kg based on the reported average dose formulation concentration and calculation parameters were adjusted accordingly. The po gavage dose was accurate at 50 mg/kg (within 104% of the nominal concentration of 10.0 mg/mL), and triplicate sampling from the vial (1 per strata; top, middle, and bottom) confirmed that the suspension dosed was homogeneous.
All dose formulation procedures were conducted under yellow lighting conditions to protect 4b from light. For the subcutaneous dose group, 2.504 mg 4b was weighed, and transferred into a formulation container. NMP (0.05 mL) was added and the contents were vortexed until 4b was completely dissolved. With continuous vortexing after each addition, PEG400 (0.45 mL), Solutol HS-15 (0.25 mL) and finally 1% Lutrol F68 in RODI water (1.75 mL) followed by sonication for 6 min. The formulation was filtered into a sterile serum vial using a 0.22 µm Millex GV PVDF filter. The resultant formulation was a clear colorless solution.
For the oral dose group, 4b was weighed (21.138 mg) and transferred to a formulation container. The prepared vehicle (0.5% CMC, 2.11 mL) was transferred into the formulation container, and the contents were stirred and sonicated for a total of 20 min. The resultant formulation was a white homogenous suspension.
Whole blood samples (225 µL each ∼90 µL plasma) were collected at each time point per animal into tubes containing K2EDTA. Samples were held on wet ice prior to centrifugation. Mice were bled twice; the first bleed was made via the submandibular facial vein, the second bleed was a terminal collection via cardiac puncture. […] The entire volume of the plasma sample was then transferred to individual tubes contained in a 96-well Matrix plate kept chilled in icy water through the entire process until storage at −70°C ±10°C. Collected plasma samples were stored at −70°C ±10°C until transferred to the analytical laboratory frozen on dry ice for bioanalysis.
The brain of each animal was collected following CO2 euthanasia and terminal bleeding. Each brain was rinsed with saline once removed from the body (to flush away any blood that may have been present), snap frozen in liquid nitrogen, and stored individually in 15 mL conical tubes at −70°C ±10°C.
Prior to extraction, acetonitrile: water (3∶1, v/v) was added to each tissue sample at a tissue: solvent ratio of 1∶3 (w/v) or 1∶2.536 (w/w), and homogenized using an OMNI tissue homogenizer. The actual volume of extraction buffer or organic solvent added to each tissue was recorded. Samples were kept chilled in icy water through the entire process until processed for 4b extraction. Immediately prior to extraction, tissue homogenates were thoroughly vortexed and aliquoted into 96-well plate(s). The entire process, from tissue homogenization to placing the samples in the tubes for 4b extraction, was conducted within 8 h.
primary stock solution was prepared at 1 mg eq./mL in DMSO. The matrix calibration standards were prepared at 1, 2, 5, 10, 50, 250, 1000, 2500, 5000 and 10000 ng eq./mL in mouse plasma for plasma, and 0.25, 0.5, 1.25, 2.5, 12.5, 62.5, 250, 625, 1250, 2500 ng eq./mL in tissue homogenate for tissue analysis. Plasma samples were quantified against an external calibration curve generated in control plasma from male C57BL/6NCRL mice. Tissue samples were quantified against an external calibration standard curve generated in control brain tissue from male C57BL/6NCRL mice. […]

[1] = C57BL/6NCRL, mouse, brain/plasma, po 50 mg eq./kg, mean (standard deviation), N = 3, read-out: B:P
[2] = C57BL/6NCRL, mouse, brain/plasma, sc 4.22 mg eq./kg, mean (standard deviation), N = 3, read-out: B:P

Nc1ccccc1NC(=O)CCCCCC(=O)Nc1ccccc1 [Compound 4b]
brain concentration in the acute sc pharmacodynamic trial, fold higher than by oral dosing (150 mg/kg): ~65 fold | AUC(0-inf) (C57BL/6NCRL, mouse, 4.22 mg/kg, mice, SC 4.22 mg eq./kg, plasma): 1.63 µM·h | half-life (C57BL/6NCRL, mouse, 4.22 mg/kg, mice, SC 4.22 mg eq./kg, plasma, read-out: T1/2 (converted)): 39.6 min | AUC(0-inf) (C57BL/6NCRL, mouse, 50 mg/kg, mice, PO 50 mg eq./kg, brain): 0.129 µM·h | half-life (C57BL/6NCRL, mouse, 50 mg/kg, mice, PO 50 mg eq./kg, brain, read-out: T1/2 (converted)): 182 min | AUC(0-inf) (C57BL/6NCRL, mouse, 50 mg/kg, mice, PO 50 mg eq./kg, plasma): 1.08 µM·h | half-life (C57BL/6NCRL, mouse, 50 mg/kg, mice, PO 50 mg eq./kg, plasma, read-out: T1/2 (converted)): 166 min | Cmax (C57BL/6NCRL, mouse, brain, po, 50 mg/kg, mice, PO 50 mg eq./kg, brain, read-out: Observed Cmax): 24 nM | Tmax (C57BL/6NCRL, mouse, brain, po, 50 mg/kg, mice, PO 50 mg eq./kg, brain): 60 min | Cmax (C57BL/6NCRL, mouse, brain, sc, 4.22 mg/kg, mice, SC 4.22 mg eq./kg, brain, read-out: Observed Cmax): 134 nM | Tmax (C57BL/6NCRL, mouse, brain, sc, 4.22 mg/kg, mice, SC 4.22 mg eq./kg, brain): 30 min | Kp at 0.5 hr [1]: 0.05 | Kp at 1 hr [1]: 0.08 | Kp at 8 hr (C57BL/6NCRL, mouse, brain/plasma, po 50 mg eq./kg, 8 hr, mean (standard deviation), N = 3, read-out: B:P): 0.2 | Kp at 0.5 hr [2]: 0.09 | Kp at 1 hr [2]: 0.06 | AUC (C57BL/6NCRL, mouse, plasma, 50 mg/kg, mice, po 50 mg eq/kg): 1.08 µM·h | Cmax (C57BL/6NCRL, mouse, plasma, po, 50 mg/kg, mice, PO 50 mg eq./kg, plasma, read-out: Observed Cmax): 1130 nM | Tmax (C57BL/6NCRL, mouse, plasma, po, 50 mg/kg, mice, PO 50 mg eq./kg, plasma): ≤ 30 min | Cmax (C57BL/6NCRL, mouse, plasma, po, 50 mg/kg, mice, po 50 mg eq/kg, read-out: plasma Cmax): 1300 nM | half-life (C57BL/6NCRL, mouse, plasma, sc, 4.22 mg eq./kg, after subcutaneous dosing, read-out: plasma half-life): ~40 min | Cmax (C57BL/6NCRL, mouse, plasma, sc, 4.22 mg/kg, mice, SC 4.22 mg eq./kg, plasma, read-out: Observed Cmax): 1340 nM | Tmax (C57BL/6NCRL, mouse, plasma, sc, 4.22 mg/kg, mice, SC 4.22 mg eq./kg, plasma): ≤ 30 min | Cmax (C57BL/6NCRL, mouse, plasma, sc, 4.22 mg/kg, mice, sc 4.22 mg/kg, read-out: plasma Cmax): 1340 nM | AUC (C57BL/6NCRL, mouse, plasma, mice, sc 4.22 mg/kg): 1.63 µM·h | estimated brain Cmax (extrapolated to 150 mg/kg s.c., assuming linear kinetics): 4000 to 5000 nM | estimated brain Cmax (extrapolated to oral bolus of 150 mg/kg): ~72 nM | Cmax (mice, PO 50 mg eq./kg, brain, read-out: Observed Cmax): 24.3 nM | brain concentration (below LLQ) (po 50 mg/kg, after 8 h): < 2.3 nM eq. | plasma concentration (below LLQ) (po 50 mg/kg, after 8 h): < 3.07 nM eq. | plasma concentration (below LLQ) (sc 4.22 mg/kg eq, after 4 h): < 3.07 nM eq. | brain concentration (below LLQ) (sc 4.22 mg/kg eq, after 8 h): < 2.3 nM eq.
